Laboratory results taken from US9616006B2, “Methods and compositions for treating dermatological diseases and conditions” (priority 2007, dated 2017).

How the values were obtained:
IL-6 [1] = test: TPA-induced IL-6 production in keratinocytes (ELISA); format: cell-based, human; conditions: Homo sapiens, Keratinocyte, read-out: Percent Inhibition of IL-6
IL-12 = test: LPS-induced IL-12 production in monocytes; format: cell-based; conditions: Monocyte, read-out: Percent Inhibition of IL-12
Description: DHE and IE both have inhibitory effects on the production of the inflammatory mediators in monocytes.

IL-6 [2] = test: UV-induced IL-6 production in fibroblasts (ELISA); format: cell-based, human; conditions: Homo sapiens, Fibroblast, read-out: Percent Inhibition of IL-6
Experimental: In one study, various concentrations of DHE were added to culture medium and these media were placed on human fibroblast cell cultures (results shown in FIG. 1). Cells were either not induced or induced with UVB radiation to stimulate cytokine/PGE-2 production. At 24 hours after treatment, the cell culture medium was removed and assayed by ELISA methods for the expression of PGE-2, various cytokines and chemokines.
DHE and IE both have inhibitory effects on the production of the inflammatory mediators in fibroblasts.

PGE2 = test: TPA-induced PGE2 production in keratinocytes (ELISA); format: cell-based, human; conditions: Homo sapiens, Keratinocyte, read-out: Percent Inhibition of PGE2
elastin mRNA = test: Elastin mRNA in human dermal fibroblasts by RT-PCR; format: cell-based; conditions: 72 hours
Description: The presently claimed and disclosed inventive concept(s) further contemplates use of various DHE, IE and EV compositions and salts, esters, ethers, and derivatives thereof to mitigate the effects of aging on the skin. For all aging studies, normal human fibroblast cell cultures were used. These cells normally produce collagen, elastin and hyaluronic acid. As the skin ages, the fibroblasts in the dermis lose their ability to produce these three key components of skin, and the skin consequently loses elasticity, thickness and smooth texture. […] There are about 13 of these enzymes, collectively referred to as MMPs (matrix metalloproteinases). One of the principal MMPs, MMP-1, is responsible for collagen degradation. […] The image is from an electrophoresis gel of DNA amplified by PCR from fibroblast mRNA. This gel was analyzed and the density of each band quantified by image analysis software.

Question: Which inhibition at 100 µM (IL-6 [1]) does the source give for CC=Cc1ccc(O)c(OC)c1 [IE, isoeugenol] here?
Answer: 94%

Question: What about the inhibition at 100 µM (IL-12) of the same compound?
Answer: 80%

Question: And the inhibition at 100 µM (IL-6 [2])?
Answer: 39%

Question: What about the inhibition at 100 µM (PGE2) of the same compound?
Answer: 82%

Question: And the “elastin levels (elastin mRNA)” value (elastin mRNA)?
Answer: increase
